Assays:
[1] = system: non-growing S. aureus DSM2569; assay: Dose-dependent killing analysis (CFU spot-plating) of stationary-phase S. aureus; type: cell-based, Staphylococcus aureus; settings: at 10 µM, 24 h treatment
Method: To determine the spectrum of activity of the compounds that were effective against non-growing UPEC, we further assessed their efficacy against the well-characterized Gram-negative and Gram-positive reference strains P. aeruginosa DSM1117 and S. aureus DSM2569, respectively. The cultures were grown and treated for 24 h in 1:4 CA-MHB (pH 7.4). […].
(§1) For survival analysis, bacteria were cultivated as described for the dose–response dilution-regrowth assay. Assays with UPEC were conducted at the CBCS screening facility using 96-well plates with a 200 μl sample volume, and compounds were dispensed using the Echo® (Labcyte) system. P. aeruginosa and S. aureus samples were treated according to the protocol used for the dilution-regrowth experiments. Treated samples were serially diluted 10-fold in PBS, and 10 μl drops were spot-plated onto rectangular LB agar plates using either a Beckman NXP robot (for UPEC) or an Integra VIAFLO96 electronic pipette (for P. aeruginosa and S. aureus). The LB agar plates were incubated overnight at 37 °C and scanned. Colonies were counted at the spots of the lowest dilution where individual colonies could be accurately distinguished. Each colony was manually marked on a separate image layer using the GNU Image Manipulation Program, and counted using NIST’s Integrated Colony Enumerator (NICE 1.4) software. The experiments were performed in three biological replicates.

non-growing UPEC CFT073 = assay: Dose-dependent killing analysis (CFU spot-plating) of stationary-phase UPEC; type: cell-based, Escherichia coli; settings: 24 h treatment of stationary phase culture
Method in brief: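 Non-growing (stationary-phase) UPEC CFT073 treated with compounds in 96-well format at 200 μl, then 10-fold serially diluted in PBS and 10 μl spots plated on LB agar. Plates incubated overnight at 37 °C; colonies counted at lowest resolvable dilution to give CFU. Three biological replicates.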

[2] = system: non-growing P. aeruginosa DSM1117; assay: Dose-dependent killing analysis (CFU spot-plating) of stationary-phase P. aeruginosa; type: cell-based, Pseudomonas aeruginosa
Method: The cultures were grown and treated for 24 h in 1:4 CA-MHB (pH 7.4).
as §1

[3] = system: intracellular S. flexneri 5a M90T in TC7 cells; assay: microbe, parasite or virus in culture; type: cell-based, Shigella flexneri

Compound | reduction of non-growing S. aureus [1] | bactericidal activity against non-growing UPEC (CFU counting) (non-growing UPEC CFT073) | reduction of bacterial counts, stationary phase P. aeruginosa ([2]; at 0.5 µM, 24 h treatment) | reduction of bacterial counts, non-growing P. aeruginosa ([2]; at 2.5 µM, 1:4 CA-MHB pH 7.4, 24 h treatment) | killing of non-growing P. aeruginosa ([2]; at 2.5 µM, 24 h treatment) [log10] | reduction of bacterial counts, non-growing P. aeruginosa ([2]; at 10 µM, 24 h treatment) | MIC:IC50 ratio ([3]; S. flexneri MIC in TSB versus intracellular IC50) | IC50 ([3]; Shigella flexneri, TC7, 14 h) [nM] | Fluorescence intensity (RFU), Mean, 0.0625 x MIC ([3]; TC7 cells infected with GFP-expressing S. flexneri, 14 h treatment, 0.0625 x MIC) [RFU] | Fluorescence intensity (RFU), Mean, 0.125 x MIC ([3]; TC7 cells infected with GFP-expressing S. flexneri, 14 h treatment, 0.125 x MIC) [RFU] | Fluorescence intensity (RFU), Mean, 0.25 x MIC ([3]; TC7 cells infected with GFP-expressing S. flexneri, 14 h treatment, 0.25 x MIC) [RFU] | Fluorescence intensity (RFU), Mean, 0.5 x MIC ([3]; TC7 cells infected with GFP-expressing S. flexneri, 14 h treatment, 0.5 x MIC) [RFU] | Fluorescence intensity (RFU), Mean, 2 x MIC ([3]; TC7 cells infected with GFP-expressing S. flexneri, 14 h treatment, 2 x MIC) [RFU] | Fluorescence intensity (RFU), Mean, 4 x MIC ([3]; TC7 cells infected with GFP-expressing S. flexneri, 14 h treatment, 4 x MIC) [RFU] | Fluorescence intensity (RFU), Mean, 8 x MIC ([3]; TC7 cells infected with GFP-expressing S. flexneri, 14 h treatment, 8 x MIC) [RFU] | Fluorescence intensity (RFU), Mean, 16 x MIC ([3]; TC7 cells infected with GFP-expressing S. flexneri, 14 h treatment, 16 x MIC) [RFU] | Fluorescence intensity (RFU), Mean, 32 x MIC ([3]; TC7 cells infected with GFP-expressing S. flexneri, 14 h treatment, 32 x MIC) [RFU] | Fluorescence intensity (RFU), Mean, MIC ([3]; TC7 cells infected with GFP-expressing S. flexneri, 14 h treatment, MIC) [RFU]
CCCCC(CC)CNC(=N)NC(=N)NCCCCCCNC(=N)NC(=N)NCC(CC)CCCC (stereo not drawn) [Alexidine] | below the limit of detection | – | – | – | – | – | – | – | – | – | – | – | – | – | – | – | – | –
CC[C@H]1OC(=O)[C@@](C)(F)C(=O)[C@H](C)[C@@H](O[C@@H]2O[C@H](C)C[C@H](N(C)C)[C@H]2O)[C@](C)(OC)C[C@@H](C)C(=O)[C@H](C)[C@H]2N(CCCCn3cc(-c4cccc(N)c4)nn3)C(=O)O[C@]12C [Solithromycin] | – | did not kill | more than four | more than four | > 4 | more than four | > 2 | 1680 | 9882.71 | 9214.08 | 4637.62 | 2156.75 | 1563.03 | 1560.69 | 1548.25 | 1546 | 1533.19 | 1837.61

Source: PMC11992225, “Antibacterial compounds against non-growing and intracellular bacteria” (npj Antimicrobials and Resistance, 2025)
